Measured values published in patent publication US20250145600A1, “2-((4-((S)-2-(4-CHLORO-2-FLUOROPHENYL)-2-METHYLBENZO[D][1,3]DIOXOL-4-YL)PIPERIDIN-1-YL)METHYL)-1-(((S)-OXETAN-2-YL)METHYL)-1H-IMIDAZOLE DERIVATIVES AS ACTIVATORS OF THE GLP1 RECEPTOR FOR THE TREATMENT OF OBESITY” (Novartis AG, priority 2022, published 2025).

Molecular target: human GLP1R (Homo sapiens, UniProt P43220)
Assay: Human GLP1R DERET internalization assay
Format: cell-based
Conditions: HEK293-SNAP-hGLP1R-GloSensor cells; for EC50: top concentration 30 μM; for Emax: relative to GLP1(7-36)
Method: Compounds of formula (I) according to the invention were tested in the following cellular assays that measure the intracellular cAMP concentration, beta-arrestin recruitment and receptor internalization. The cAMP is generated by the activation of GLP1R. The extent to which the GLP1R is internalized into the cell and away from the plasma membrane following activation is also shown in Table 2. EC50 for each assay is defined as the concentration of the compound that leads to half of the maximum response (after baseline correction). Emax is defined as the maximum response observed for the test compound, normalized to the maximum response observed for the endogenous ligand (GLP1(7-36)) to GLP1R.
Human GLP1R DERET Internalization Assay
The extent to which agonists internalize the human GLP1R was determined based on an optimized version of a RealTime FRET-based ‘DERET’ (Dissociation Enhanced Resonance Energy Transfer) assay. The technology relies on labeling of the SNAP-tagged GPCR with a SNAP-Lumi-Terbium (donor fluorophore, Cisbio, cat #SSNPTBD). The compounds are incubated with the cells over-expressing the GPCR of interest in the presence of an excess of fluorescein (acceptor fluorophore). When the GPCR is on the cell surface, the donor signal is quenched by the acceptor and the donor/acceptor ratio is low. As the GPCR internalizes, the donor signal is no longer quenched, and the acceptor is no longer excited so the donor/acceptor ratio increases.
HEK293-SNAP-hGLP1R-GloSensor cells (stably overexpressing SNAP-tagged hGLP1R) were seeded overnight in white 384-well poly-D-Lysine coated plates (Greiner Bio One, cat #781945) in regular DMEM growth medium (Gibco, cat #11965-092, 10% heat-inactivated FBS, 10 mM HEPES, 1× penicillin/streptomycin, 0.5 mg/mL geneticin (Gibco, cat #10131-035) and 0.25 mg/mL hygromycin B (Invitrogen, cat #10687010). On the assay day, cell medium was removed and 100 nM SNAP-Lumi-Tb reagent was added in Opti-MEM solution. The cells were incubated at 37° C. for 1 h. Cells were washed using a plate washer in assay buffer [1×HBSS (10× Gibco, cat #14065-056), 20 mM Hepes (Gibco, cat #15630-080), 1 mM CaCl2 (Fluka, cat #21114-1L), 1 mM MgCl2 (Ambion, cat #AM9530G) pH7.4], and 20 μL buffer with 0.1% BSA was added to each well. After leaving cells to equilibrate for […] at 37° C., 10 μL of Fluorescein (sodium salt, Sigma, cat #F6377, diluted in buffer) was added at 25 μM final concentration. To generate triplicate dose response curves, compounds were serially diluted 3-fold in assay buffer, then added to the cell assay plate to a final volume of 40 μL and final top concentrations starting at 30 μM. In the same plate and assay buffer as the tested compounds, a GLP1 (7-36) peptide (Bachem, cat #H-6795) control curve was included at a final top concentration of 1 μM in order to establish EC100. EC0 wells with buffer only were also included. The plate FRET fluorescence was measured immediately using a Perkin Elmer Envision with LANCE/DELFIA D400 single mirror, excitation filter X320, and emission filters M615_203 (donor emission) and M515 (acceptor emission), and then measured every 30 min. […] Plates were kept at 37° C. between reads. Data was expressed as the ratio of donor/acceptor emissions using Microsoft Excel and plotted in GraphPad Prism. In order to determine EC50 and Emax for internalization, data was calculated and expressed as percent of the GLP1 (7-36) EC100 control wells: [(sample signal−mean EC0 signal)/(mean EC100 of GLP1 (7-36) signal−mean EC0 signal)]*100 using Microsoft Excel. Curve fitting for EC50 determinations was performed using GraphPad Prism. The 4-parameter logistic model, Hill slope was used:
where Y is the functional response; X is the compound concentration; bottom is A0 or the minimum value (at 0 dose); top is Ainf or the maximum value (at infinite dose); EC50 is the point of inflection (i.e. the point on the sigmoid shaped curve halfway between A0 and Ainf). […]

human GLP1R, sequence (P43220 24-463): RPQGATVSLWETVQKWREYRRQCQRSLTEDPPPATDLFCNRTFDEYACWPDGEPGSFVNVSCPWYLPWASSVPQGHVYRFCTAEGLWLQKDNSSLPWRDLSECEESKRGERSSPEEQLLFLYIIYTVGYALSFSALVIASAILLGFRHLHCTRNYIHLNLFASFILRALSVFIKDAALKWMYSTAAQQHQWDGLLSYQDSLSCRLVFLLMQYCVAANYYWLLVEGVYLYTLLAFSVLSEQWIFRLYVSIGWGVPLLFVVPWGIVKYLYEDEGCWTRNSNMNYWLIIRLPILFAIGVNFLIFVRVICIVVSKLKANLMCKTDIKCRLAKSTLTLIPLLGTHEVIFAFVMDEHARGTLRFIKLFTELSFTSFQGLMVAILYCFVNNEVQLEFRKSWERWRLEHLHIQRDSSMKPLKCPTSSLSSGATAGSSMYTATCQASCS

SMILES | EC50 [µM] | Emax [%]
Cc1c(-c2cnc(C(=O)O)o2)nc(CN2CCC(c3cccc4c3O[C@@](C)(c3ccc(Cl)cc3F)O4)CC2)n1C[C@@H]1CCO1 [Compound C-16, 5-(2-((4-((S)-2-(4-chloro-2-fluorophenyl)-2-methylbenzo[d][1,3]dioxol-4-yl)piperidin-1-yl)methyl)-5-methyl-1-(((S)-oxetan-2-yl)methyl)-1H-imidazol-4-yl)oxazole-2-carboxylic acid] | 2.94 | 50
Cc1c(-c2nc(C(=O)O)co2)nc(CN2CCC(c3cccc4c3O[C@@](C)(c3ccc(Cl)cc3F)O4)CC2)n1C[C@@H]1CCO1 [Compound C-13, 2-(2-((4-((S)-2-(4-chloro-2-fluorophenyl)-2-methylbenzo[d][1,3]dioxol-4-yl)piperidin-1-yl)methyl)-5-methyl-1-(((S)-oxetan-2-yl)methyl)-1H-imidazol-4-yl)oxazole-4-carboxylic acid] | 1.28 | 42
CCc1oc(-c2c(C)nc(CN3CCC(c4cccc5c4O[C@@](C)(c4ccc(Cl)cc4F)O5)CC3)n2C[C@@H]2CCO2)nc1C(=O)O [Compound C-10, 2-(2-((4-((S)-2-(4-chloro-2-fluorophenyl)-2-methylbenzo[d][1,3]dioxol-4-yl)piperidin-1-yl)methyl)-4-methyl-1-(((S)-oxetan-2-yl)methyl)-1H-imidazol-5-yl)-5-ethyloxazole-4-carboxylic acid] | > 30 | 7
Cc1c(-c2nc(C(F)(F)F)c(C(=O)O)o2)nc(CN2CCC(c3cccc4c3O[C@@](C)(c3ccc(Cl)cc3F)O4)CC2)n1C[C@@H]1CCO1 [Compound C-14, 2-(2-((4-((S)-2-(4-chloro-2-fluorophenyl)-2-methylbenzo[d][1,3]dioxol-4-yl)piperidin-1-yl)methyl)-5-methyl-1-(((S)-oxetan-2-yl)methyl)-1H-imidazol-4-yl)-4-(trifluoromethyl)oxazole-5-carboxylic acid] | > 30 | 20
Cc1nc(CN2CCC(c3cccc4c3O[C@@](C)(c3ccc(Cl)cc3F)O4)CC2)n(C[C@@H]2CCO2)c1-c1nc(C(=O)O)co1 [Compound C-9, 2-(2-((4-((S)-2-(4-chloro-2-fluorophenyl)-2-methylbenzo[d][1,3]dioxol-4-yl)piperidin-1-yl)methyl)-4-methyl-1-(((S)-oxetan-2-yl)methyl)-1H-imidazol-5-yl)oxazole-4-carboxylic acid] | > 30 | 11
Cc1nc(CN2CCC(c3cccc4c3O[C@@](C)(c3ccc(Cl)cc3F)O4)CC2)n(C[C@@H]2CCO2)c1-c1coc(C(=O)O)n1 [Compound C-20, 4-(2-((4-((S)-2-(4-chloro-2-fluorophenyl)-2-methylbenzo[d][1,3]dioxol-4-yl)piperidin-1-yl)methyl)-4-methyl-1-(((S)-oxetan-2-yl)methyl)-1H-imidazol-5-yl)oxazole-2-carboxylic acid] | > 30 | 5
Cc1cc(-c2nc(CN3CCC(c4cccc5c4O[C@@](C)(c4ccc(Cl)cc4F)O5)CC3)n(C[C@@H]3CCO3)c2C)oc1C(=O)O [Compound C-19, 5-(2-((4-((S)-2-(4-chloro-2-fluorophenyl)-2-methylbenzo[d][1,3]dioxol-4-yl)piperidin-1-yl)methyl)-5-methyl-1-(((S)-oxetan-2-yl)methyl)-1H-imidazol-4-yl)-3-methylfuran-2-carboxylic acid] | > 30 | 34
Cc1c(-c2coc(C(=O)O)n2)nc(CN2CCC(c3cccc4c3O[C@@](C)(c3ccc(Cl)cc3F)O4)CC2)n1C[C@@H]1CCO1 [Compound C-18, 4-(2-((4-((S)-2-(4-chloro-2-fluorophenyl)-2-methylbenzo[d][1,3]dioxol-4-yl)piperidin-1-yl)methyl)-5-methyl-1-(((S)-oxetan-2-yl)methyl)-1H-imidazol-4-yl)oxazole-2-carboxylic acid] | 2.38 | 86
Cc1oc(-c2nc(CN3CCC(c4cccc5c4O[C@@](C)(c4ccc(Cl)cc4F)O5)CC3)n(C[C@@H]3CCO3)c2C)nc1C(=O)O [Compound C-12, 2-(2-((4-((S)-2-(4-chloro-2-fluorophenyl)-2-methylbenzo[d][1,3]dioxol-4-yl)piperidin-1-yl)methyl)-5-methyl-1-(((S)-oxetan-2-yl)methyl)-1H-imidazol-4-yl)-5-methyloxazole-4-carboxylic acid] | > 30 | 45
CCc1nc(CN2CCC(c3cccc4c3O[C@@](C)(c3ccc(Cl)cc3F)O4)CC2)n(C[C@H]2CCO2)c1-c1nc(C(=O)O)co1 [Compound C-7, 2-(2-((4-((S)-2-(4-chloro-2-fluorophenyl)-2-methylbenzo[d][1,3]dioxol-4-yl)piperidin-1-yl)methyl)-4-ethyl-1-(((R)-oxetan-2-yl)methyl)-1H-imidazol-5-yl)oxazole-4-carboxylic acid] | 0.03 | 51
C[C@]1(c2ccc(Cl)cc2F)Oc2cccc(C3CCN(Cc4nc(C(F)(F)F)c(-c5nc(C(=O)O)co5)n4C[C@@H]4CCO4)CC3)c2O1 [Compound C-4, 2-(2-((4-((S)-2-(4-chloro-2-fluorophenyl)-2-methylbenzo[d][1,3]dioxol-4-yl)piperidin-1-yl)methyl)-1-(((S)-oxetan-2-yl)methyl)-4-(trifluoromethyl)-1H-imidazol-5-yl)oxazole-4-carboxylic acid] | > 30 | 1
CCc1nc(CN2CCC(c3cccc4c3O[C@@](C)(c3ccc(Cl)cc3F)O4)CC2)n(C[C@@H]2CCO2)c1-c1nc(C(=O)O)co1 [Compound C-5, 2-(2-((4-((S)-2-(4-chloro-2-fluorophenyl)-2-methylbenzo[d][1,3]dioxol-4-yl)piperidin-1-yl)methyl)-4-ethyl-1-(((S)-oxetan-2-yl)methyl)-1H-imidazol-5-yl)oxazole-4-carboxylic acid] | > 30 | 6
Cc1nc(CN2CCC(c3cccc4c3O[C@@](C)(c3ccc(Cl)cc3F)O4)CC2)n(C[C@@H]2CCO2)c1-c1cc(C(=O)O)n(C)n1 [Compound C-21, 3-(2-((4-((S)-2-(4-chloro-2-fluorophenyl)-2-methylbenzo[d][1,3]dioxol-4-yl)piperidin-1-yl)methyl)-4-methyl-1-(((S)-oxetan-2-yl)methyl)-1H-imidazol-5-yl)-1-methyl-1H-pyrazole-5-carboxylic acid] | > 30 | 2
Cc1c(-c2cc(C(=O)O)n(C)n2)nc(CN2CCC(c3cccc4c3O[C@@](C)(c3ccc(Cl)cc3F)O4)CC2)n1C[C@@H]1CCO1 [Compound C-17, 3-(2-((4-((S)-2-(4-chloro-2-fluorophenyl)-2-methylbenzo[d][1,3]dioxol-4-yl)piperidin-1-yl)methyl)-5-methyl-1-(((S)-oxetan-2-yl)methyl)-1H-imidazol-4-yl)-1-methyl-1H-pyrazole-5-carboxylic acid] | > 30 | 6
Cc1c(-c2ccc(C(=O)O)o2)nc(CN2CCC(c3cccc4c3O[C@@](C)(c3ccc(Cl)cc3F)O4)CC2)n1C[C@@H]1CCO1 [Compound C-24, 5-(2-((4-((S)-2-(4-chloro-2-fluorophenyl)-2-methylbenzo[d][1,3]dioxol-4-yl)piperidin-1-yl)methyl)-5-methyl-1-(((S)-oxetan-2-yl)methyl)-1H-imidazol-4-yl)furan-2-carboxylic acid] | 0.49 | 19
